Values of other authors in patent publication US20110105387A1 (priority 2009, published 2011).
In brackets after ≈: the same amount, converted by molar mass.

How the values were obtained:
[1] = literature
[2] = literature; remark: listed apart in the source

| water solubility [1] [µg/mL] | time to attain peak concentrations ([2]; after oral dosing) [h] | increase in AUC with a high-fat meal ([2]; high-fat meal, slower rate of absorption) [%] | excreted in urine [2] [%] | Structure (SMILES) |
| --- | --- | --- | --- | --- |
| ~120 (≈ 116 µM) |  |  |  | CO[C@H]1C[C@@H]2CC[C@@H](C)[C@@](O)(O2)C(=O)C(=O)N2CCCC[C@H]2C(=O)O[C@H]([C@H](C)C[C@@H]2CC[C@@H](OC(=O)C(C)(CO)CO)[C@H](OC)C2)CC(=O)[C@H](C)/C=C(\C)[C@@H](O)[C@@H](OC)C(=O)[C@H](C)C[C@H](C)/C=C/C=C/C=C/1C [CCI-779] |
|  | ≤ 2 | 35 | < 3 | CO[C@H]1C[C@@H]2CC[C@@H](C)[C@@](O)(O2)C(=O)C(=O)N2CCCC[C@H]2C(=O)O[C@H]([C@H](C)C[C@@H]2CC[C@@H](O)[C@H](OC)C2)CC(=O)[C@H](C)/C=C(\C)[C@@H](O)[C@@H](OC)C(=O)[C@H](C)C[C@H](C)/C=C/C=C/C=C/1C [rapamycin] |
